Reference: ChEMBL document CHEMBL3102773, “The synthesis and comparative receptor binding affinities of novel, isomeric pyridoindolobenzazepine scaffolds” (Bioorg Med Chem Lett, 2014)
Where “and” joins values, the source holds several entries; their conditions need not be identical. Equal values may be shown once. Where a name gives a salt, the structure may show the parent alone.

Columns and labels:
[1] = biological target: 5-hydroxytryptamine receptor 2B (Homo sapiens, UniProt P41595)
Description: Displacement of [3H]LSD from 5-HT2B receptor (unknown origin)

Histamine H3 receptor = Histamine H3 receptor (Homo sapiens, UniProt Q9Y5N1); assay: Binding affinity to histamine H3 receptor (unknown origin) by radioligand displacement assay
[2] = biological target: Delta-type opioid receptor (Homo sapiens, UniProt P41143); assay: Binding affinity to delta opioid receptor (unknown origin) by radioligand displacement assay
D(4) dopamine receptor = biological target: T1, D(4) dopamine receptor (Homo sapiens, UniProt P21917)
T1 sequence (P21917 whole entry): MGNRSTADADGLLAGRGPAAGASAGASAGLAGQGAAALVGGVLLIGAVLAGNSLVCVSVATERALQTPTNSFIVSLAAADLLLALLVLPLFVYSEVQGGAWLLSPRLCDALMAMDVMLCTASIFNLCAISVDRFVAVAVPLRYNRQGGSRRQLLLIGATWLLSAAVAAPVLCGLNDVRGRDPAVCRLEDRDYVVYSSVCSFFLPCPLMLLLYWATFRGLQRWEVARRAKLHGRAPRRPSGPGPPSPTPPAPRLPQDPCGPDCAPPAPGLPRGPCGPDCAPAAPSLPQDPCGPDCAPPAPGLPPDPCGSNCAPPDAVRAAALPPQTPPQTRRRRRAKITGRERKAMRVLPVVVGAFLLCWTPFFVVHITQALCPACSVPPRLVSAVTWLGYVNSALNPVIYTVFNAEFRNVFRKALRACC
Description: Displacement of [3H]N-Methylspiperone from dopamine D4 receptor (unknown origin)

[3] = biological target: Sodium-dependent dopamine transporter (Homo sapiens, UniProt Q01959); assay: Binding affinity to dopamine transporter (unknown origin) by radioligand displacement assay
[4] = biological target: Beta-2 adrenergic receptor (Homo sapiens, UniProt P07550); assay: Binding affinity to adrenergic beta2 receptor (unknown origin) by radioligand displacement assay
[5] = biological target: T2, 5-hydroxytryptamine receptor 3A (Homo sapiens, UniProt P46098)
T2 sequence (P46098 whole entry): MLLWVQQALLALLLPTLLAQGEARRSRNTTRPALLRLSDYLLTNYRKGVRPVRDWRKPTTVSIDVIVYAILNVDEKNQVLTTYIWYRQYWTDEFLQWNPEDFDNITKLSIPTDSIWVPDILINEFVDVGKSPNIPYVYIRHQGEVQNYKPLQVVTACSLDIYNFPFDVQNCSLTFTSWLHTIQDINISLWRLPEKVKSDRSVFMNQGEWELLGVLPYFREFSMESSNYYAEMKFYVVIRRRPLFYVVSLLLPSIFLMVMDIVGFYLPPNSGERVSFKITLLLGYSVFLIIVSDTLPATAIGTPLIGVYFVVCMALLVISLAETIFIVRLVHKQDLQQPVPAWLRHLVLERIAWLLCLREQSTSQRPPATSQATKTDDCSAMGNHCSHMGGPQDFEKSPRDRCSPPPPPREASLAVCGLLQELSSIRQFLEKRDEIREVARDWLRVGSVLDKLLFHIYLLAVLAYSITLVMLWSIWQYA
Description: Displacement of [3H]GR65630 from 5-HT3 receptor (unknown origin)

D(3) dopamine receptor = D(3) dopamine receptor (Homo sapiens, UniProt P35462)
Description: Displacement of [3H]N-Methylspiperone from dopamine D3 receptor (unknown origin)

[6] = biological target: Beta-1 adrenergic receptor (Homo sapiens, UniProt P08588); assay: Binding affinity to adrenergic beta1 receptor (unknown origin) by radioligand displacement assay
[7] = biological target: T3, Muscarinic acetylcholine receptor M4 (Homo sapiens, UniProt P08173); assay: Binding affinity to muscarinic M4 receptor (unknown origin) by radioligand displacement assay
T3 sequence (P08173 whole entry): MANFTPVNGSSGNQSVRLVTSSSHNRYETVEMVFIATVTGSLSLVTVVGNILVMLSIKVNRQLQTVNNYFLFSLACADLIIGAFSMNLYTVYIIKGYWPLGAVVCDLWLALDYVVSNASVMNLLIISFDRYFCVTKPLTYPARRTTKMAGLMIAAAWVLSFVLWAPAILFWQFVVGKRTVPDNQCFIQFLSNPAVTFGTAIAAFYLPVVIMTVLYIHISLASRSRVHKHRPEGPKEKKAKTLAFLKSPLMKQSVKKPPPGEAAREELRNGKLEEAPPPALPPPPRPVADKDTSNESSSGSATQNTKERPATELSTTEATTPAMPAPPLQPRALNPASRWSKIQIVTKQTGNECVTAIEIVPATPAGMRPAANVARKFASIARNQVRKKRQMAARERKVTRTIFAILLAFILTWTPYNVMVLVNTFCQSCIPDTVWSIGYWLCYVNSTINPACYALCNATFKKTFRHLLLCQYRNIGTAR

Mu-type opioid receptor = Mu-type opioid receptor (Homo sapiens, UniProt P35372); assay: Binding affinity to mu opioid receptor (unknown origin) by radioligand displacement assay
[8] = biological target: Beta-3 adrenergic receptor (Homo sapiens, UniProt P13945); assay: Binding affinity to adrenergic beta3 receptor (unknown origin) by radioligand displacement assay
D(1A) dopamine receptor = D(1A) dopamine receptor (Homo sapiens, UniProt P21728); assay: Binding affinity to dopamine D1 receptor (unknown origin) by radioligand displacement assay
[9] = biological target: Sodium-dependent noradrenaline transporter (Homo sapiens, UniProt P23975); assay: Displacement of [3H]Nisoxetine from norepinephrine transporter (unknown origin)
[10] = biological target: T4, Muscarinic acetylcholine receptor M2 (Homo sapiens, UniProt P08172); assay: Binding affinity to muscarinic M2 receptor (unknown origin) by radioligand displacement assay
T4 sequence (P08172 whole entry): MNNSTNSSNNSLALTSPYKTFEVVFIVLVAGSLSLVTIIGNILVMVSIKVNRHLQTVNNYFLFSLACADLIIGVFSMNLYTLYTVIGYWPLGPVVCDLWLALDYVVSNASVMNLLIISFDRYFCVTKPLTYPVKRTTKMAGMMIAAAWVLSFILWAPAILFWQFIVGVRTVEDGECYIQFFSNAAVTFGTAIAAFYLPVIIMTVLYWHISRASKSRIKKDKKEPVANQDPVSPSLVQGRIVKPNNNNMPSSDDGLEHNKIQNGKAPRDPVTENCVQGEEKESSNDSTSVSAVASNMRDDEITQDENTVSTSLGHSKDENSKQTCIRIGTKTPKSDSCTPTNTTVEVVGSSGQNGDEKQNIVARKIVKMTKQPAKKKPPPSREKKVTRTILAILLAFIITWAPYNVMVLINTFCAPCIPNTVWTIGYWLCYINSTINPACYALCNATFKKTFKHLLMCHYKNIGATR

[11] = biological target: Sodium-dependent serotonin transporter (Homo sapiens, UniProt P31645)
[12] = biological target: Muscarinic acetylcholine receptor M1 (Homo sapiens, UniProt P11229)
Description: Displacement of [3H]QNB from muscarinic M1 receptor (unknown origin)

D(2) dopamine receptor = D(2) dopamine receptor (Homo sapiens, UniProt P14416); assay: Displacement of [3H]N-Methylspiperone from dopamine D2 receptor (unknown origin)
[13] = biological target: Kappa-type opioid receptor (Homo sapiens, UniProt P41145); assay: Displacement of [3H]U69593 from kappa opioid receptor (unknown origin)
[14] = biological target: 5-hydroxytryptamine receptor 2C (Homo sapiens, UniProt P28335)
Description: Displacement of [3H]Mesulergine from 5-HT2C receptor (unknown origin)

[15] = biological target: 5-hydroxytryptamine receptor 1E (Homo sapiens, UniProt P28566)
Description: Displacement of [3H]5HT from 5-HT1E receptor (unknown origin)

[16] = biological target: Sigma non-opioid intracellular receptor 1 (Homo sapiens, UniProt Q99720); assay: Displacement of [3H](+)Pentazocine from sigma 1 receptor (unknown origin)
D(1B) dopamine receptor = D(1B) dopamine receptor (Homo sapiens, UniProt P21918)
Description: Displacement of [3H]SCH23390 from dopamine D5 receptor (unknown origin)

[17] = biological target: Alpha-1A adrenergic receptor (Homo sapiens, UniProt P35348)
[18] = biological target: Muscarinic acetylcholine receptor M5 (Homo sapiens, UniProt P08912)
Description: Displacement of [3H]QNB from muscarinic M5 receptor (unknown origin)

[19] = biological target: Muscarinic acetylcholine receptor M3 (Homo sapiens, UniProt P20309)
Description: Displacement of [3H]QNB from muscarinic M3 receptor (unknown origin)

[20] = biological target: Alpha-1D adrenergic receptor (Homo sapiens, UniProt P25100)
[21] = biological target: Alpha-1B adrenergic receptor (Homo sapiens, UniProt P35368)
Description: Displacement of [125I]HEAT from adrenergic alpha1B receptor (unknown origin)

Histamine H2 receptor = Histamine H2 receptor (Homo sapiens, UniProt P25021)
[22] = biological target: 5-hydroxytryptamine receptor 5A (Homo sapiens, UniProt P47898)
Description: Displacement of [3H]LSD from 5-HT5A receptor (unknown origin)

[23] = biological target: 5-hydroxytryptamine receptor 2A (Homo sapiens, UniProt P28223)
Description: Displacement of [3H]Ketanserin from 5-HT2A receptor (unknown origin)

[24] = biological target: 5-hydroxytryptamine receptor 6 (Homo sapiens, UniProt P50406)
Description: Displacement of [3H]LSD from 5-HT6 receptor (unknown origin)

[25] = biological target: Alpha-2C adrenergic receptor (Homo sapiens, UniProt P18825)
Description: Displacement of [125I]Clonidine from adrenergic alpha2C receptor (unknown origin)

[26] = biological target: 5-hydroxytryptamine receptor 1B (Homo sapiens, UniProt P28222)
Description: Displacement of [3H]5-CT from 5-HT1B receptor (unknown origin)

[27] = biological target: Alpha-2B adrenergic receptor (Homo sapiens, UniProt P18089)
Description: Displacement of [125I]Clonidine from adrenergic alpha2B receptor (unknown origin)

[28] = biological target: Alpha-2A adrenergic receptor (Homo sapiens, UniProt P08913)
Description: Displacement of [125I]Clonidine from adrenergic alpha2A receptor (unknown origin)

Histamine H1 receptor = Histamine H1 receptor (Homo sapiens, UniProt P35367)
Description: Displacement of [3H]Pyrilamine from histamine H1 receptor (unknown origin)

[29] = biological target: 5-hydroxytryptamine receptor 7 (Homo sapiens, UniProt P34969)
Description: Displacement of [3H]LSD from 5-HT7 receptor (unknown origin)

[30] = biological target: 5-hydroxytryptamine receptor 1D (Homo sapiens, UniProt P28221); assay: Displacement of [3H]5-CT from 5-HT1D receptor (unknown origin)
[31] = biological target: 5-hydroxytryptamine receptor 1A (Homo sapiens, UniProt P08908); assay: Displacement of [3H]WAY100635 from 5-HT1A receptor (unknown origin)

Sequence of D(1A) dopamine receptor (P21728 whole entry): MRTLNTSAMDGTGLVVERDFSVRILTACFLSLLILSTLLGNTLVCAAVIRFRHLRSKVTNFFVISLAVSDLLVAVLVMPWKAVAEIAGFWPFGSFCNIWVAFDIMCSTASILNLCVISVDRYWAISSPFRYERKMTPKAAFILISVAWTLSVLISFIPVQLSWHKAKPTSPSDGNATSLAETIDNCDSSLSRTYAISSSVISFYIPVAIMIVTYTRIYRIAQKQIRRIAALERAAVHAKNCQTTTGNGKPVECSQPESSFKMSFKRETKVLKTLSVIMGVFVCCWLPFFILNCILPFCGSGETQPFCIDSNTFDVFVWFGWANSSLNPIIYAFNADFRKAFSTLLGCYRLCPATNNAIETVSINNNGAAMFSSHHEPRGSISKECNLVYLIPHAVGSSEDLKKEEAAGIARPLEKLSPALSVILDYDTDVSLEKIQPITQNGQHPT
Sequence of Histamine H2 receptor (P25021 whole entry): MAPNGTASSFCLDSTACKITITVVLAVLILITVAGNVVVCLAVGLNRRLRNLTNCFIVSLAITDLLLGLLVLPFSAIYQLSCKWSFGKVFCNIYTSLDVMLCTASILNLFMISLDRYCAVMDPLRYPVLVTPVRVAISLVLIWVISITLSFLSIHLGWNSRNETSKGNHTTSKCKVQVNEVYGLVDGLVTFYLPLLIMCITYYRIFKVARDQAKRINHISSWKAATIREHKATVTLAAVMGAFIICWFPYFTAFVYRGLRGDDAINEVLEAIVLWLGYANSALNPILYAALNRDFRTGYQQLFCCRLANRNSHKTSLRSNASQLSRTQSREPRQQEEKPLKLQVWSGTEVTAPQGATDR
Sequence of Histamine H3 receptor (Q9Y5N1 whole entry): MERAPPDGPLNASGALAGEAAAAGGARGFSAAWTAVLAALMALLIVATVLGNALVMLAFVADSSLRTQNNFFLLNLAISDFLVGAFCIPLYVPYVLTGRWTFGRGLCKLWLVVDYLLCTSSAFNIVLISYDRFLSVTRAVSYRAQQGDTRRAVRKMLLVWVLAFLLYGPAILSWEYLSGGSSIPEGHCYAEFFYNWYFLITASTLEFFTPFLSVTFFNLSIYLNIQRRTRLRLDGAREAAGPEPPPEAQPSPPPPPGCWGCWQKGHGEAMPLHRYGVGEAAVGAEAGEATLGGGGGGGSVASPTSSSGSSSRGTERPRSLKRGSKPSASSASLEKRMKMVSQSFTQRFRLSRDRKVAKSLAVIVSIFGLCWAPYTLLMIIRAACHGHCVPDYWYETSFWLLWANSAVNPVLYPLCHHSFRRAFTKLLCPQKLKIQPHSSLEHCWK
Sequence of Beta-2 adrenergic receptor (P07550 whole entry): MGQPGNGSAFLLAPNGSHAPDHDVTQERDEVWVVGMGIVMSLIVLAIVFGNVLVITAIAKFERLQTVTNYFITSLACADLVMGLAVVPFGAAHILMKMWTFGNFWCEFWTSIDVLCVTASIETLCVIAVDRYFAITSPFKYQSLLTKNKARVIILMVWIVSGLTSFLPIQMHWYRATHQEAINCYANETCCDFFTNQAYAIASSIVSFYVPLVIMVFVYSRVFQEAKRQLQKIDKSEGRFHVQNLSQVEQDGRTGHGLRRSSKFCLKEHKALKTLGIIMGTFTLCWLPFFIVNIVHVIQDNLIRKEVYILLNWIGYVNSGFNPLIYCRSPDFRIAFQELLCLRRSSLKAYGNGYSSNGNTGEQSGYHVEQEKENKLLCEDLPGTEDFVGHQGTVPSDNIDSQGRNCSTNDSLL
Sequence of Beta-1 adrenergic receptor (P08588 whole entry): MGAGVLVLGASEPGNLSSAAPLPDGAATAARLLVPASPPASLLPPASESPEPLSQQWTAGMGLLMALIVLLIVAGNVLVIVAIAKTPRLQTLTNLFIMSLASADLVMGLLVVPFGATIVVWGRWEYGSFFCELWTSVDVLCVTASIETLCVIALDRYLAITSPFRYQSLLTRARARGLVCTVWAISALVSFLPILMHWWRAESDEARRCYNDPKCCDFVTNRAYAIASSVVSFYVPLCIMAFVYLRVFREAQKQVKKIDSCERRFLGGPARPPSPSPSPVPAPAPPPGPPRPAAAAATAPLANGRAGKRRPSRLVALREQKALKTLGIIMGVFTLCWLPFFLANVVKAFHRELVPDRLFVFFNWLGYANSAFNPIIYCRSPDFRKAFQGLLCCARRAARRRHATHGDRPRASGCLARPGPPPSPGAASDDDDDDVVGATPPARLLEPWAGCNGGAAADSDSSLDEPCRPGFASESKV
Sequence of Beta-3 adrenergic receptor (P13945 whole entry): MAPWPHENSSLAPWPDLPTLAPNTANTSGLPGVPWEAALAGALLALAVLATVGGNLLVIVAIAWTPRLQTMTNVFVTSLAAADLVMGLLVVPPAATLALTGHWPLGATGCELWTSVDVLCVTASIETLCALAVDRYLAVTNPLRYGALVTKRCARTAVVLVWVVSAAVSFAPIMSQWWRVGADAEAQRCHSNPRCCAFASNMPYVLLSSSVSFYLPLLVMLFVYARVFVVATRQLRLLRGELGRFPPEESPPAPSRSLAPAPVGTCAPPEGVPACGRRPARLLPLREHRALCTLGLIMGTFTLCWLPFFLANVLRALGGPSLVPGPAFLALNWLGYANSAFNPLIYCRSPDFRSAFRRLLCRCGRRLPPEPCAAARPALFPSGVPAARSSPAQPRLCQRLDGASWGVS
Sequence of Mu-type opioid receptor (P35372 whole entry): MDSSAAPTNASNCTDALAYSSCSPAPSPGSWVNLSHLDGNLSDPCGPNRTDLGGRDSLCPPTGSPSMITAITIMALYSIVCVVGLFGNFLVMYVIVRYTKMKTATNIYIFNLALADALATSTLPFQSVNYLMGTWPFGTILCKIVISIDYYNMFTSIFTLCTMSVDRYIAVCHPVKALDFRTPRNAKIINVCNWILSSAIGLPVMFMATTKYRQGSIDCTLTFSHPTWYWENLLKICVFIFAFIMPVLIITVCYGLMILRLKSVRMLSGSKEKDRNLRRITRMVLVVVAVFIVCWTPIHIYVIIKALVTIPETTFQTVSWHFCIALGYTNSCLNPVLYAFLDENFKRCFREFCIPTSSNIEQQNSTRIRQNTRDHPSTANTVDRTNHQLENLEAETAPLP
Sequence of Sodium-dependent dopamine transporter (Q01959 whole entry): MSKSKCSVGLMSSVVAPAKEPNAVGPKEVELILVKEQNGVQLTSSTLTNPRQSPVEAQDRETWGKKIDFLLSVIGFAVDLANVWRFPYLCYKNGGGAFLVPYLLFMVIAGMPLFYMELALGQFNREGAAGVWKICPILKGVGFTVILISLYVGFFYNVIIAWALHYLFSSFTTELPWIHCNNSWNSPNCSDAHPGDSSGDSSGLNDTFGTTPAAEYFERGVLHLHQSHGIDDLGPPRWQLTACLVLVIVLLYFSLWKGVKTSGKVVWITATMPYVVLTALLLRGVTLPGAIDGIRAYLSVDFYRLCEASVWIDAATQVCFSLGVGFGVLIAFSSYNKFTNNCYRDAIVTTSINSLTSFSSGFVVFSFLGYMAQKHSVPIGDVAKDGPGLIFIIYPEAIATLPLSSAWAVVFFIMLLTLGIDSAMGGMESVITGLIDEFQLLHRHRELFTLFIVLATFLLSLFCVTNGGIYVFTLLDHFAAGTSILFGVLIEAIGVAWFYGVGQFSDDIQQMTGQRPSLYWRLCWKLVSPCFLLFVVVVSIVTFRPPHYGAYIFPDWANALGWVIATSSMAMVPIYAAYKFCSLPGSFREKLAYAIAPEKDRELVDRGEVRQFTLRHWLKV
Sequence of Delta-type opioid receptor (P41143 whole entry): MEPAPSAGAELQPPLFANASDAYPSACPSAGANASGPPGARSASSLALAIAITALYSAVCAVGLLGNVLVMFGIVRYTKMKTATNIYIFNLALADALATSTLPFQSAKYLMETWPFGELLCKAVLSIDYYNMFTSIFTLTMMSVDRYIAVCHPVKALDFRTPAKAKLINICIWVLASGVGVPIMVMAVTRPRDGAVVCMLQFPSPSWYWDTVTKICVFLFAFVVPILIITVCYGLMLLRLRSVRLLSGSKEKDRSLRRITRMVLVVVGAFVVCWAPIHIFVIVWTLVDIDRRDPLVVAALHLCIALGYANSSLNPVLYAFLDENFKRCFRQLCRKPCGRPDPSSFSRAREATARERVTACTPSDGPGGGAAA
Sequence of Sodium-dependent noradrenaline transporter (P23975 whole entry): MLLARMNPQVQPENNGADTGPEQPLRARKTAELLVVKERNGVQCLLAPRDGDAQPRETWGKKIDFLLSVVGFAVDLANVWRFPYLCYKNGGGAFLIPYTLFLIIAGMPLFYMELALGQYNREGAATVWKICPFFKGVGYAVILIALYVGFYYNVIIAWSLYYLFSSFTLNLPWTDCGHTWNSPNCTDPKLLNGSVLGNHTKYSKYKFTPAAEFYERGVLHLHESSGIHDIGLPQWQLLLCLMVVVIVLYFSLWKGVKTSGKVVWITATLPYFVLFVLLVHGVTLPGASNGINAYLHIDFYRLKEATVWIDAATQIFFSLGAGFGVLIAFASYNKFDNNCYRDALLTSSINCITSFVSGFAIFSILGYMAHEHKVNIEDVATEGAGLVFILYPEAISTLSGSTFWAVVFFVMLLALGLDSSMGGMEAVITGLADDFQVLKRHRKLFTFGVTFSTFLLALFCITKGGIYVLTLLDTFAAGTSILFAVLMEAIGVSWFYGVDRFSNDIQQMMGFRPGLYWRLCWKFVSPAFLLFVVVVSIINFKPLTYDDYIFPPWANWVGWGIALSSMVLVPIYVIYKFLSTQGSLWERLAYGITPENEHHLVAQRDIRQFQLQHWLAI
Sequence of D(3) dopamine receptor (P35462 whole entry): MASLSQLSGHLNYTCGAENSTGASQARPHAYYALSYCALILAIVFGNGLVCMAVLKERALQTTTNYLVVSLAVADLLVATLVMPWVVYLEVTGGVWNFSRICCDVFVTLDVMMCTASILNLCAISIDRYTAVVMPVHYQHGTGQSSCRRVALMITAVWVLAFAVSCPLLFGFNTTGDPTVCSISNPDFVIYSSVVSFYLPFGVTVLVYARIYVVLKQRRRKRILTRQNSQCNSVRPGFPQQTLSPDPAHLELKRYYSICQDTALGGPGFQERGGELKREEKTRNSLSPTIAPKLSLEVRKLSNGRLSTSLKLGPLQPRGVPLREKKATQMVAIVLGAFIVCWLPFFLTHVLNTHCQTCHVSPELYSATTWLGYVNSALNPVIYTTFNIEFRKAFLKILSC

Row | Structure (SMILES) | Ki [1] [µM] | Ki (Histamine H3 receptor) [µM] | Ki [2] [µM] | Ki (D(4) dopamine receptor) | Ki [3] [µM] | Ki [4] [µM] | Ki [5] [µM] | Ki (D(3) dopamine receptor) [µM] | Ki [6] [µM] | Ki [7] [µM] | Ki (Mu-type opioid receptor) [µM] | Ki [8] [µM] | Ki (D(1A) dopamine receptor) [µM] | Ki [10] [µM] | Ki [12] [µM] | Ki (D(2) dopamine receptor) [µM] | Ki [13] [µM] | Ki [14] [µM] | Ki [15] [µM] | Ki (Histamine H2 receptor) [µM] | other results
1 | Cn1ccc2cc3c(cc21)CCN3C(=O)Nc1cccnc1 | 0.012 | – | – | – | – | – | – | – | – | – | – | – | – | – | – | – | – | – | – | – | –
2 | CN1CCc2c(c3cccc4c3n2-c2ccccc2CC4)C1 | – | > 10 | > 10 | > 10 µM | > 10 | > 10 | > 10 | > 10 | > 10 | > 10 | > 10 | > 10 | > 10 | > 10 | – | – | – | – | – | – | Ki ([9]; read-out: pKi (converted)): > 10 µM
3 | CN1CCc2c(c3cccc4c3n2Cc2ccccc2C4)C1 | – | > 10 | > 10 | > 10 µM | > 10 | > 10 | > 10 | – | > 10 | > 10 | > 10 | > 10 | > 10 | > 10 | > 10 | > 10 | > 10 | > 10 | > 10 | > 10 | Ki ([11]; read-out: pKi (converted)): > 10 µM; Ki ([16]; read-out: pKi (converted)): > 10 µM; Ki (D(1B) dopamine receptor): > 10 µM; Ki ([17]; read-out: pKi (converted)): > 10 µM; Ki [18]: > 10 µM; Ki [19]: > 10 µM; Ki ([20]; read-out: pKi (converted)): > 10 µM; Ki [21]: > 10 µM; Ki [22]: > 10 µM; Ki ([9]; read-out: Ki): 1.35 µM
4 | CN1CCc2c(c3cccc4c3n2CCc2ccccc2-4)C1 | 0.104 | > 10 | > 10 | 1.38 µM and 1.23 µM | > 10 | > 10 | 0.529 | > 10 | > 10 | > 10 | > 10 | > 10 | > 10 | > 10 | > 10 | > 10 | > 10 | > 10 | > 10 | 0.943 | Ki [23]: 0.257 µM; Ki ([11]; read-out: Ki): 0.413 µM; Ki [24]: > 10 µM; Ki [25]: 0.446 µM; Ki [26]: 1.22 µM; Ki [27]: 4.35 µM; Ki ([16]; read-out: Ki): 0.22 µM; Ki (D(1B) dopamine receptor): > 10 µM; Ki [28]: 0.407 µM; Ki ([17]; read-out: Ki): 0.286 µM; Ki [18]: > 10 µM; Ki [19]: > 10 µM; Ki (Histamine H1 receptor): > 10 µM; Ki [29]: 0.195 µM; Ki ([20]; read-out: Ki): 0.293 µM; Ki [21]: 2.24 µM; Ki [22]: > 10 µM; Ki ([9]; read-out: Ki): 1.95 µM; Ki [30]: 0.625 µM; Ki [31]: > 10 µM
5 | CN1CC2c3ccccc3Oc3ccc(Cl)cc3C2C1 (centres undefined) [ASENAPINE MALEATE] | – | – | – | – | – | – | – | – | – | – | – | – | – | – | – | – | – | – | – | 0.0057 | –
